Data published in ChEMBL document CHEMBL3286236, “Novel aromatic-polyamine conjugates as cholinesterase inhibitors with notable selectivity toward butyrylcholinesterase” (Bioorg Med Chem, 2014).

Molecular target: Cholinesterase (Equus caballus, UniProt P81908)
Experiment: not given
Settings: not given

Cholinesterase, sequence (P81908 whole entry): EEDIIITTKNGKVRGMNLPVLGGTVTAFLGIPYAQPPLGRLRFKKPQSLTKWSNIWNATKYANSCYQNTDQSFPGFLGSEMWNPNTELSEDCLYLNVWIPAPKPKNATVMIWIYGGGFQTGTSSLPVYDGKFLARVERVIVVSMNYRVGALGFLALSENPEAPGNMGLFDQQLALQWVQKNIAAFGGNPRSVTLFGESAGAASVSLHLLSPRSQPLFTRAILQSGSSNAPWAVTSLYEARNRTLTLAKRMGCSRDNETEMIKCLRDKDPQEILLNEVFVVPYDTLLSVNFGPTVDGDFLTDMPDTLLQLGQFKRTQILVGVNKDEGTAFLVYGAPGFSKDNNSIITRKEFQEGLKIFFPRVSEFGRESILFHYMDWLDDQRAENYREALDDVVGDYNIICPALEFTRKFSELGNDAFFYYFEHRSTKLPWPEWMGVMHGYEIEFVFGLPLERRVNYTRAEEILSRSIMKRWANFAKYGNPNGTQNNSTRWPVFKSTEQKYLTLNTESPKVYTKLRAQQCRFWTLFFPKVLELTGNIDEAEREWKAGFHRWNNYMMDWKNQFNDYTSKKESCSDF

Going from `O=C(CNCCCO)Nc1cccc2ccccc12` to `NCCCCNCC(=O)Nc1cccc2ccccc12`, the IC50 falls from over 50 µM to 10.3 µM.

Compared with `CN(C)CCNCC(=O)Nc1cccc2ccccc12`, `CN(C)CCNCC(=O)Nc1c2ccccc2cc2ccccc12` is 27-fold lower in IC50: 4.39 µM for the first, 0.161 µM for the second. The second is the more potent here.

Compared with `NCCCNCCCCNCC(=O)Nc1cccc2ccccc12`, `NCCCNCCCCNCCCNCC(=O)Nc1cccc2ccccc12` is higher in IC50: 47.5 µM for the first, over 50 µM for the second. The first is the more potent here.

First: O=C(CNCCCO)Nc1c2ccccc2cc2ccccc12
Second: NCCCNCC(=O)Nc1c2ccccc2cc2ccccc12
The IC50 of the first is 1.8-fold higher: 0.502 µM for the first, 0.28 µM for the second. The second is the more potent here.

`NCCCCNCC(=O)Nc1c2ccccc2cc2ccccc12` and `NCCCCCCNCC(=O)Nc1c2ccccc2cc2ccccc12` are within 1.5-fold of each other in IC50: 0.016 µM for the first, 0.023 µM for the second.

First: NCCCNCCCNCC(=O)Nc1c2ccccc2cc2ccccc12
Second: NCCCNCCCCNCC(=O)Nc1c2ccccc2cc2ccccc12
The IC50 of the first is 1.9-fold higher: 0.305 µM for the first, 0.164 µM for the second.

Compared with `NCCCNCCCCNCCCNCC(=O)Nc1c2ccccc2cc2ccccc12`, `NCCCNCCCCNCCCNCC(=O)Nc1cccc2c1C(=O)c1ccccc1C2=O` is higher in IC50: 0.657 µM for the first, over 50 µM for the second. The first is the more potent here.

`O=C(CNCCCO)Nc1cccc2c1C(=O)c1ccccc1C2=O` and `NCCCCNCC(=O)Nc1cccc2c1C(=O)c1ccccc1C2=O` cannot be ordered by IC50: over 50 µM for the first, over 50 µM for the second.

Work on `NCCCNCCCCNCC(=O)Nc1cccc2c1C(=O)c1ccccc1C2=O` yielded an IC50 of 33 µM.

Molecular target: Acetylcholinesterase (Electrophorus electricus, UniProt O42275)
Sequence (O42275 whole entry): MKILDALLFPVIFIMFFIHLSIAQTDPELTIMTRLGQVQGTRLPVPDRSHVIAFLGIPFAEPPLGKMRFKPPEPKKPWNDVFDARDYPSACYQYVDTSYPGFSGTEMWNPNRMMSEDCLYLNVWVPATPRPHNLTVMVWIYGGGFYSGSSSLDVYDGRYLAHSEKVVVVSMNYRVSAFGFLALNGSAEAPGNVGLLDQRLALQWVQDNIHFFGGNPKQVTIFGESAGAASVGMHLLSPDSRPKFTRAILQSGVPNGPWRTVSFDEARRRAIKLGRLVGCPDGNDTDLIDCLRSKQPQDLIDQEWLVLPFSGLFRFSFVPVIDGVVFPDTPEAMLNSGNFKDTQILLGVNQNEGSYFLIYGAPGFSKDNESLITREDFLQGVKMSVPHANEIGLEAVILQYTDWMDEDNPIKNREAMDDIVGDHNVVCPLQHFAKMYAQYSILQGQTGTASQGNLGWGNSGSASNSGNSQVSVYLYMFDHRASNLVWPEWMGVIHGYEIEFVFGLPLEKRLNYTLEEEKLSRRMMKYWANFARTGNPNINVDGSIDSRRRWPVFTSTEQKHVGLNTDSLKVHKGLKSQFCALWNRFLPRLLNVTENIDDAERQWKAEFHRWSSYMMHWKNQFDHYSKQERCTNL
Experiment: not given
Settings: not given

`O=C(CNCCCO)Nc1cccc2ccccc12` and `NCCCCNCC(=O)Nc1cccc2ccccc12` cannot be ordered by IC50: over 50 µM for the first, over 50 µM for the second.

`CN(C)CCNCC(=O)Nc1cccc2ccccc12` and `CN(C)CCNCC(=O)Nc1c2ccccc2cc2ccccc12` cannot be ordered by IC50: over 50 µM for the first, over 50 µM for the second.

`NCCCNCCCCNCC(=O)Nc1cccc2ccccc12` and `NCCCNCCCCNCCCNCC(=O)Nc1cccc2ccccc12` cannot be ordered by IC50: over 50 µM for the first, over 50 µM for the second.

`O=C(CNCCCO)Nc1c2ccccc2cc2ccccc12` and `NCCCNCC(=O)Nc1c2ccccc2cc2ccccc12` cannot be ordered by IC50: over 50 µM for the first, over 50 µM for the second.

First: NCCCCNCC(=O)Nc1c2ccccc2cc2ccccc12
Second: NCCCCCCNCC(=O)Nc1c2ccccc2cc2ccccc12
The IC50 of the first is higher: over 50 µM for the first, 2.74 µM for the second. The second is the more potent here.

Going from `NCCCNCCCNCC(=O)Nc1c2ccccc2cc2ccccc12` to `NCCCNCCCCNCC(=O)Nc1c2ccccc2cc2ccccc12`, the IC50 falls from over 50 µM to 25.1 µM. The second is the more potent here.

Compared with `NCCCNCCCCNCCCNCC(=O)Nc1c2ccccc2cc2ccccc12`, `NCCCNCCCCNCCCNCC(=O)Nc1cccc2c1C(=O)c1ccccc1C2=O` is lower in IC50: over 50 µM for the first, 7.22 µM for the second.

Going from `O=C(CNCCCO)Nc1cccc2c1C(=O)c1ccccc1C2=O` to `NCCCCNCC(=O)Nc1cccc2c1C(=O)c1ccccc1C2=O`, the IC50 falls from 11.1 µM to 1.5 µM (7.4-fold). The second is the more potent here.

In the case of `NCCCNCCCCNCC(=O)Nc1cccc2c1C(=O)c1ccccc1C2=O`, the IC50 is reported as 2.63 µM.

System: not listed separately
Experiment: Solubility of the compound
Type: physicochemical
Settings: not given

For `CCN(CC)CC(=O)Nc1c2ccccc2cc2ccccc12.Cl`, the solubility was “Insoluble”.
With `Cl.O=C(CNC1CC1)Nc1c2ccccc2cc2ccccc12` the solubility was “Insoluble”.

System: HepG2
Experiment: cells
Settings: Homo sapiens, HepG2, 48 h

`O=C(CNCCCO)Nc1cccc2ccccc12` and `NCCCCNCC(=O)Nc1cccc2ccccc12` cannot be ordered by IC50: over 100 µM for the first, over 100 µM for the second.

`CN(C)CCNCC(=O)Nc1cccc2ccccc12` and `CN(C)CCNCC(=O)Nc1c2ccccc2cc2ccccc12` cannot be ordered by IC50: over 100 µM for the first, over 100 µM for the second.

`NCCCNCCCCNCC(=O)Nc1cccc2ccccc12` and `NCCCNCCCCNCCCNCC(=O)Nc1cccc2ccccc12` cannot be ordered by IC50: over 100 µM for the first, over 100 µM for the second.

`O=C(CNCCCO)Nc1c2ccccc2cc2ccccc12` and `NCCCNCC(=O)Nc1c2ccccc2cc2ccccc12` cannot be ordered by IC50: over 100 µM for the first, over 100 µM for the second.

`NCCCCNCC(=O)Nc1c2ccccc2cc2ccccc12` and `NCCCCCCNCC(=O)Nc1c2ccccc2cc2ccccc12` cannot be ordered by IC50: over 100 µM for the first, over 100 µM for the second.

`NCCCNCCCNCC(=O)Nc1c2ccccc2cc2ccccc12` and `NCCCNCCCCNCC(=O)Nc1c2ccccc2cc2ccccc12` cannot be ordered by IC50: over 100 µM for the first, over 100 µM for the second.

Going from `NCCCNCCCCNCCCNCC(=O)Nc1c2ccccc2cc2ccccc12` to `NCCCNCCCCNCCCNCC(=O)Nc1cccc2c1C(=O)c1ccccc1C2=O`, the IC50 falls from over 100 µM to 11.5 µM. The second is the more potent here.

`O=C(CNCCCO)Nc1cccc2c1C(=O)c1ccccc1C2=O` and `NCCCCNCC(=O)Nc1cccc2c1C(=O)c1ccccc1C2=O` are within 1.5-fold of each other in IC50: 23 µM for the first, 24.2 µM for the second.

`NCCCNCCCCNCC(=O)Nc1cccc2c1C(=O)c1ccccc1C2=O` and `O=C1c2c(O)ccc(O)c2C(=O)c2c(NCCNCCO)ccc(NCCNCCO)c21` [MITOXANTRONE] are within 1.5-fold of each other in IC50: 15.6 µM for the first, 11.1 µM for the second.
